# Results from patent US20230097866A1, “BACTERIAL TOPOISOMERASE INHIBITORS DERIVED FROM ISOMANNIDE” (Ohio State Innovation Foundation, priority 2020, published 2023).
# Key:
# H37Rv (rpoB^S450L) = format: cell-based, Mycobacterium tuberculosis
# H37Rv (katG^del) = assay: microbe, parasite or virus in culture; format: cell-based; conditions: Mycobacterium tuberculosis, microbroth dilution
# H37Rv (gyrA^D94K) = format: cell-based, Mycobacterium tuberculosis
Structure (SMILES),MIC H37Rv (rpoB^S450L) (H37Rv (rpoB^S450L)) [µg/mL],MIC (H37Rv (katG^del)) [µg/mL],MIC H37Rv (gyrA^D94K) (H37Rv (gyrA^D94K)) [µg/mL]
"COc1ccc2ncc(F)c(CC[C@@]3(O)CO[C@@H]4[C@@H](NCc5ccc(C)cc5)CO[C@@H]43)c2n1 [Compound 25, (3R,3aS,6S,6aR)-3-(2-(3-fluora-6-methoxy-1,5-naphthyridin-4-yl)ethyl)-6-((4-methyllbenzyl)amino)hexahydrofuro[3,2-b]furan-3-ol]",4,4,16
"COc1ccc2ncc(F)c(CC[C@@]3(O)CO[C@@H]4[C@@H](NCc5ccc(Cl)c(Cl)c5)CO[C@@H]43)c2n1 [Compound 26, (3R,3aS,6S,6aR)-6-((3,4-dichlorobenzyl)amino)-3-(2-(3-fluoro-6-methoxy-1,5-napkthyridin-4-yl)ethyl)hexahydrofuro[3,2-b]-furan-3-ol]",1,1,2
